Measurements: PMC11435058, “Synthesis of New Thiazole-Privileged Chalcones as Tubulin Polymerization Inhibitors with Potential Anticancer Activities” (Pharmaceuticals, 2024)

What was measured:
TK-10 = experiment: NCI-60 anticancer screen (SRB; single dose and five doses); details: Homo sapiens
SNB-19 = experiment: cells; details: Homo sapiens
SF-268 = experiment: NCI-60 anticancer screen (SRB; single dose and five doses); details: Homo sapiens
HS 578T = experiment: as above; details: Homo sapiens
RXF 393 = experiment: as above; details: Homo sapiens
786-0 = experiment: as above; details: Homo sapiens
U251 = experiment: as above; details: Homo sapiens
MDA-MB-435 = experiment: as above; details: Homo sapiens
SK-MEL-2 = experiment: as above; details: Homo sapiens
MDA-MB-231/ATCC = experiment: as above; details: Homo sapiens
NCI-H522 = experiment: as above; details: Homo sapiens
SF-539 = experiment: as above; details: Homo sapiens
HOP-62 = experiment: as above; details: Homo sapiens
A549/ATCC = experiment: as above; details: Homo sapiens
NCI-H226 = experiment: as above; details: Homo sapiens, NCI-H226

## Cc1[nH]c(=S)sc1C(=O)/C=C/c1cccc(Cl)c1 [2e, (E)-3-(3-Chlorophenyl)-1-(4-Methyl-2-Thioxo-2,3-Dihydrothiazol-5-yl)Prop-2-En-1-One]
TK-10; TK-10
  GI50: 19.5 µM
  IC50: 45.7 µM
TK-10; TK-10, read-out: LC50
  CC50: > 100 µM
TK-10; TK-10, read-out: TGI
  IC (TGI): 47.9 µM
SNB-19; SNB-19
  IC50: 17 µM
SNB-19; SNB-19, read-out: LC50
  CC50: 49 µM
SNB-19; SNB-19, read-out: TGI
  IC (TGI): 21.4 µM
SF-268; SF-268
  GI50: 3.72 µM
  IC50: 7.59 µM
SF-268; SF-268, 48 h, read-out: Growth Percentage
  activity at 10 µM: 51.8%
SF-268; SF-268, read-out: LC50
  CC50: 97.7 µM
SF-268; SF-268, read-out: TGI
  IC (TGI): 17 µM
HS 578T
  GI50: 3.09 µM
  IC50: > 100 µM
HS 578T; 48 h, read-out: Growth Percentage
  activity at 10 µM: 47.2%
HS 578T; read-out: LC50
  CC50: > 100 µM
HS 578T; read-out: TGI
  IC (TGI): 85.1 µM
RXF 393; RXF 393
  GI50: 1.91 µM
  IC50: 5.13 µM
RXF 393; RXF 393, 48 h, read-out: Growth Percentage
  activity at 10 µM: 10.7%
RXF 393; RXF 393, read-out: LC50
  CC50: 10 µM
RXF 393; RXF 393, read-out: TGI
  IC (TGI): 4.37 µM
786-0; 786-0
  GI50: 2.51 µM
  IC50: 4.07 µM
786-0; 786-0, 48 h, read-out: Growth Percentage
  activity at 10 µM: 13.3%
786-0; 786-0, read-out: LC50
  CC50: 37.1 µM
786-0; 786-0, read-out: TGI
  IC (TGI): 6.31 µM
U251; U-251
  GI50: 1.91 µM
  IC50: 3.31 µM
U251; U-251, 48 h, read-out: Growth Percentage
  activity at 10 µM: 12.1%
U251; U-251, read-out: LC50
  CC50: 7.24 µM
U251; U-251, read-out: TGI
  IC (TGI): 3.72 µM
MDA-MB-435; MDA-MB-435
  GI50: 2.09 µM
  IC50: 3.55 µM
MDA-MB-435; MDA-MB-435, 48 h, read-out: Growth Percentage
  activity at 10 µM: 17.3%
MDA-MB-435; MDA-MB-435, read-out: LC50
  CC50: 17 µM
MDA-MB-435; MDA-MB-435, read-out: TGI
  IC (TGI): 5.01 µM
SK-MEL-2; SK-MEL-2
  GI50: 10.5 µM
  IC50: 29.5 µM
SK-MEL-2; SK-MEL-2, 48 h, read-out: Growth Percentage
  activity at 10 µM: 32.1%
SK-MEL-2; SK-MEL-2, read-out: LC50
  CC50: 70.8 µM
SK-MEL-2; SK-MEL-2, read-out: TGI
  IC (TGI): 27.5 µM
MDA-MB-231/ATCC; MDA-MB-231
  GI50: 2.45 µM
  IC50: 6.17 µM
MDA-MB-231/ATCC; MDA-MB-231, 48 h, read-out: Growth Percentage
  activity at 10 µM: -0.43%
MDA-MB-231/ATCC; MDA-MB-231, read-out: LC50
  CC50: 39.8 µM
MDA-MB-231/ATCC; MDA-MB-231, read-out: TGI
  IC (TGI): 6.92 µM
NCI-H522; NCI-H522
  GI50: 4.57 µM
  IC50: 11.5 µM
NCI-H522; NCI-H522, 48 h, read-out: Growth Percentage
  activity at 10 µM: 22%
NCI-H522; NCI-H522, read-out: LC50
  CC50: 45.7 µM
NCI-H522; NCI-H522, read-out: TGI
  IC (TGI): 17.4 µM
SF-539; SF-539
  GI50: 2 µM
  IC50: 3.63 µM
SF-539; SF-539, 48 h, read-out: Growth Percentage
  activity at 10 µM: -10.7%
SF-539; SF-539, read-out: TGI
  IC (TGI): 4.07 µM
HOP-62; HOP-62
  GI50: 2.57 µM
  IC50: 4.68 µM
HOP-62; HOP-62, 48 h, read-out: Growth Percentage
  activity at 10 µM: 10.4%
HOP-62; HOP-62, read-out: LC50
  CC50: 74.1 µM
HOP-62; HOP-62, read-out: TGI
  IC (TGI): 6.31 µM
A549/ATCC; A549
  GI50: 4.79 µM
  IC50: 7.41 µM
A549/ATCC; A549, 48 h, read-out: Growth Percentage
  activity at 10 µM: 26.5%
A549/ATCC; A549, read-out: LC50
  CC50: > 100 µM
A549/ATCC; A549, read-out: TGI
  IC (TGI): 47.9 µM
NCI-H226
  GI50: 4.37 µM
  IC50: 29.5 µM
